{"source": "ChEMBL document CHEMBL5537193", "about": "“Multitargeting HDAC Inhibitors Containing a RAS/RAF Protein Interfering Unit” (J Med Chem, 2024)", "key": {"Histone deacetylase 4": {"biological_target": "Histone deacetylase 4 (Homo sapiens, UniProt P56524)", "sequence (P56524 whole entry)": "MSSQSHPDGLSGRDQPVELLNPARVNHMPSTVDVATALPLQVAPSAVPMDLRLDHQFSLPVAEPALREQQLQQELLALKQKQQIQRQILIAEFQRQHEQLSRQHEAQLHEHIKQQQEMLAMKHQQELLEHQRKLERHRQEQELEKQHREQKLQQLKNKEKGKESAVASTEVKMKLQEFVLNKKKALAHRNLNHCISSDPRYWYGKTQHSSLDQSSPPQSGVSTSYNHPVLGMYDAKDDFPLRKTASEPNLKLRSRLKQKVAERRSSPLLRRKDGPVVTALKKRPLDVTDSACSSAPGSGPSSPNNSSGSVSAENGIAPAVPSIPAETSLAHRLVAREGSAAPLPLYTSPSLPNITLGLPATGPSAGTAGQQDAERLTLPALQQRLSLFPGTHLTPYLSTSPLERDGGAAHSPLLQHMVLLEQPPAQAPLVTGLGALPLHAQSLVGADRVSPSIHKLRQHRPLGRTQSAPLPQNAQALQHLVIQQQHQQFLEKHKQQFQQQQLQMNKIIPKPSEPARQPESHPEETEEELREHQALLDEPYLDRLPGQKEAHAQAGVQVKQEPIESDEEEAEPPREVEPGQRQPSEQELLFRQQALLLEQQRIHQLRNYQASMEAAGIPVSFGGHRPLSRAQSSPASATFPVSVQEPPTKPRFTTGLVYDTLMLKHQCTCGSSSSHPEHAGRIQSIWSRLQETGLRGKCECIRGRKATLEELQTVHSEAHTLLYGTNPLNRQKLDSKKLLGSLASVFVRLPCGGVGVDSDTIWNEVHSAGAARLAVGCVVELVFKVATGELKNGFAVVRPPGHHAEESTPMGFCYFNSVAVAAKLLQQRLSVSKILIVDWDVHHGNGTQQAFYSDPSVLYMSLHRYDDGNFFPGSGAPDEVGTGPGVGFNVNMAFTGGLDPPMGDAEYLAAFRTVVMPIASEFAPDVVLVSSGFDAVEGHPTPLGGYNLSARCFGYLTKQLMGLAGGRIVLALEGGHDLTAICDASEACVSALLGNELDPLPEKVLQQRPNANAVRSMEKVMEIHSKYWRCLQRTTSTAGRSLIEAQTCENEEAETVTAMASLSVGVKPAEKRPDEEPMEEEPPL", "assay": "Inhibition of HDAC4 (unknown origin)"}, "Histone deacetylase 9": {"biological_target": "Histone deacetylase 9 (Homo sapiens, UniProt Q9UKV0)", "sequence (Q9UKV0 whole entry)": "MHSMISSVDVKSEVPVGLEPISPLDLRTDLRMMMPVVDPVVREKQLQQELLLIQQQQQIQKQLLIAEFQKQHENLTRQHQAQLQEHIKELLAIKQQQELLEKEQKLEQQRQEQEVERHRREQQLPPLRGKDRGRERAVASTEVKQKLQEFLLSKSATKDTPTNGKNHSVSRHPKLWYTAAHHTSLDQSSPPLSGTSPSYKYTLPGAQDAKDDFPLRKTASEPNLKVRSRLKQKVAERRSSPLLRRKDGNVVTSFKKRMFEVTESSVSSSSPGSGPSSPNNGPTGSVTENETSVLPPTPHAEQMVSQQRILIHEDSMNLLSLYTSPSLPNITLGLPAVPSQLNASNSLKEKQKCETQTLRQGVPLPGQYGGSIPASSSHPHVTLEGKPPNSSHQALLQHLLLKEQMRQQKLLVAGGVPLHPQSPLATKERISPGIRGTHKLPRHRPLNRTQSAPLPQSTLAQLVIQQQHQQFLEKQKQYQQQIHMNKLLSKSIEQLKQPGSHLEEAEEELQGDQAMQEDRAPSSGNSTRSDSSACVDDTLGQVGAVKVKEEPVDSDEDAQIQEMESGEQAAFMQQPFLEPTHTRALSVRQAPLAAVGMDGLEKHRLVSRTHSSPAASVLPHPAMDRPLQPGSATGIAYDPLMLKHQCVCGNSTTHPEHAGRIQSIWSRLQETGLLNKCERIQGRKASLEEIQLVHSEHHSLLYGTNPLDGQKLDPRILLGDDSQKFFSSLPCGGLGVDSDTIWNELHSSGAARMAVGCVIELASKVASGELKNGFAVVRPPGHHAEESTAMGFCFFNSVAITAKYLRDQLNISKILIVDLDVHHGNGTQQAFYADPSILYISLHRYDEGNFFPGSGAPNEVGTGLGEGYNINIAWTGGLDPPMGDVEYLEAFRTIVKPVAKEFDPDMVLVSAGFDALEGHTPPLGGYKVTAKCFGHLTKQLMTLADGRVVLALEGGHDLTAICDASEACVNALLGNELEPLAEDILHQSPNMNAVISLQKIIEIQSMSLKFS", "assay": "Inhibition of HDAC9 (unknown origin)"}, "[1]": {"biological_target": "Serine/threonine-protein kinase PLK1 (Homo sapiens, UniProt P53350)", "sequence (P53350 whole entry)": "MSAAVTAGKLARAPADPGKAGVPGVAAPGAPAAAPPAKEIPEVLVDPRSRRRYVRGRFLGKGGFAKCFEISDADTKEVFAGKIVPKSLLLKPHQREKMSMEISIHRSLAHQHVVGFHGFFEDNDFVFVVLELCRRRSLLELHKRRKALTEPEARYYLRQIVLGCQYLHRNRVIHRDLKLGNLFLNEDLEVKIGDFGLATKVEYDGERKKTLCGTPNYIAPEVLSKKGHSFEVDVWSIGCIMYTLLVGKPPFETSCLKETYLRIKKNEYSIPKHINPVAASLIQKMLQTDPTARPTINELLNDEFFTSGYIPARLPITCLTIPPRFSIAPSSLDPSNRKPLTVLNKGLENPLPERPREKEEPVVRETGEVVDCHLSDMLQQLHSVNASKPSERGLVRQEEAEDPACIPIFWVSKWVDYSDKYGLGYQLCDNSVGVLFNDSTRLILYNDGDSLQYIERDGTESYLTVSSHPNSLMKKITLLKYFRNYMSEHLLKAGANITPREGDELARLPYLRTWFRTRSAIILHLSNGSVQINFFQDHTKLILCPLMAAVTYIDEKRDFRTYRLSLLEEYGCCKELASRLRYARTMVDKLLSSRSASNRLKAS", "assay": "Inhibition of PLK1 (unknown origin)"}, "HT-29 [2]": {"test_system": "HT-29", "assay": "Cell cycle arrest in human HT-29 cells assessed as accumulation of cells at G2-M phase at 2 uM incubated for 24 hrs by PI/RNase staining based flow cytometric analysis", "assay_type": "functional"}, "PANC-1 [3]": {"test_system": "PANC-1", "assay": "Induction of apoptosis in human PANC-1 cells incubated for 24 hrs by flow cytometric analysis", "assay_type": "functional, cell-based", "conditions": "dose 1-4 µM"}, "HT-29 [4]": {"test_system": "HT-29", "assay": "Induction of apoptosis in human HT-29 cells incubated for 24 hrs by flow cytometric analysis", "assay_type": "functional, cell-based", "conditions": "dose 1-4 µM"}, "PANC-1 [5]": {"test_system": "PANC-1", "assay": "Induction of apoptosis in human PANC-1 cells assessed as increase in cleaved PARP expression level at 2 uM incubated for 24 hrs by Western blot analysis", "assay_type": "functional, cell-based"}, "[6]": {"assay": "Metabolic stability in mouse liver microsomes assessed as half-life at 1 uM measured upto 40 mins by LC-MS/MS analysis", "assay_type": "ADME, Microsome"}, "[7]": {"assay": "Metabolic stability in human liver microsomes assessed as intrinsic clearance at 1 uM measured upto 40 mins by LC-MS/MS analysis", "assay_type": "ADME, Microsome", "conditions": "read-out: CLH"}, "[8]": {"assay": "Metabolic stability in mouse liver microsomes assessed as intrinsic clearance at 1 uM measured upto 40 mins by LC-MS/MS analysis", "assay_type": "ADME, Microsome", "conditions": "read-out: CLH"}, "[9]": {"assay": "Half-life in Sprague-Dawley rat at 15 mg/kg, ip measured after 24 hrs by LC-MS/MS analysis", "assay_type": "ADME, organism-based", "conditions": "in vivo"}, "[10]": {"assay": "Cmax in Sprague-Dawley rat at 15 mg/kg, ip measured after 24 hrs by LC-MS/MS analysis", "assay_type": "ADME, organism-based", "conditions": "in vivo"}, "[11]": {"assay": "AUC (0 to infinity) in Sprague-Dawley rat at 15 mg/kg, ip measured after 24 hrs by LC-MS/MS analysis", "assay_type": "ADME, organism-based", "conditions": "in vivo"}, "[12]": {"assay": "Elimination rate constant in Sprague-Dawley rat at 15 mg/kg, ip measured after 24 hrs by LC-MS/MS analysis", "assay_type": "ADME, organism-based", "conditions": "in vivo"}, "[13]": {"assay": "MRT (0 to infinity) in Sprague-Dawley rat at 15 mg/kg, ip measured after 24 hrs by LC-MS/MS analysis", "assay_type": "ADME, organism-based", "conditions": "in vivo"}, "HT-29 [14]": {"test_system": "HT-29", "assay": "Antitumor activity against human HT-29 xenografted in BALB/c nude mouse assessed as tumor growth inhibition at 15 mg/kg, ip administered once every 2 days for 12 times for 24 days relative to control", "assay_type": "functional", "conditions": "HT-29, 576 h, time 24 day, read-out: TGI"}, "[15]": {"assay": "Toxicity in BALB/c nude mouse xenografted with human HT-29 cells assessed as change in main organs at 7.5 to 15 mg/kg, ip administered once every 2 days for 12 times for 24 days by H&E staining based analysis", "assay_type": "organism-based", "conditions": "in vivo, 576 h, dose 7.5-15 mg/kg, time 24 day"}, "PANC-1 [16]": {"test_system": "PANC-1", "assay": "Effect on RAS protein expression in human PANC-1 cells at 2 uM incubated for 24 hrs by Western blot analysis", "assay_type": "functional, cell-based"}, "PANC-1 [17]": {"test_system": "PANC-1", "assay": "Effect on MEK protein expression in human PANC-1 cells at 2 uM incubated for 24 hrs by Western blot analysis", "assay_type": "functional, cell-based"}, "PANC-1 [18]": {"test_system": "PANC-1", "assay": "Inhibition of MAPK signaling pathway in human PANC-1 cells assessed as inhibition of C-RAF phosphorylation at Ser338 residue at 2 uM incubated for 24 hrs by Western blot analysis", "assay_type": "cell-based"}, "PANC-1 [19]": {"test_system": "PANC-1", "assay": "Inhibition of MAPK signaling pathway in human PANC-1 cells assessed as inhibition of MEK phosphorylation at 2 uM incubated for 24 hrs by Western blot analysis", "assay_type": "cell-based"}, "PANC-1 [20]": {"test_system": "PANC-1", "assay": "Inhibition of MAPK signaling pathway in human PANC-1 cells assessed as inhibition of ERK1/2 phosphorylation at 2 uM incubated for 24 hrs by Western blot analysis", "assay_type": "cell-based"}, "HT-29 [21]": {"test_system": "HT-29", "assay": "Inhibition of MAPK signaling pathway in human HT-29 cells assessed as inhibition of ERK1/2 phosphorylation at 2 uM incubated for 24 hrs by Western blot analysis", "assay_type": "cell-based"}, "PANC-1 [22]": {"test_system": "PANC-1", "assay": "Effect on alpha-tubulin expression in human PANC-1 cells at 2 uM incubated for 24 hrs by Western blot analysis", "assay_type": "functional, cell-based"}, "HT-29 [23]": {"test_system": "HT-29", "assay": "Effect on alpha-tubulin expression in human HT-29 cells at 2 uM incubated for 24 hrs by Western blot analysis", "assay_type": "functional, cell-based"}, "Mus musculus [24]": {"test_system": "Mus musculus", "assay": "In vivo inhibition of HDAC3 in BALB/c mouse xenografted with human HT-29 cells assessed as induction of alpha-tubulin acetylation administered intraperitoneally once every 2 days for 12 times and measured after 24 days by Western blot analysis", "assay_type": "functional", "conditions": "dose 7.5-15 mg/kg, route ip, time 24.0 day"}, "Mus musculus [25]": {"test_system": "Mus musculus", "assay": "In vivo inhibition of MAPK signaling pathway in BALB/c mouse xenografted with human HT-29 cells assessed as inhibition of c-RAF phosphorylation at Ser338 residue administered intraperitoneally once every 2 days for 12 times and measured after 24 days by Western blot analysis", "assay_type": "functional", "conditions": "dose 7.5-15 mg/kg, route ip, time 24.0 day"}, "HT-29 [26]": {"test_system": "HT-29", "assay": "Effect on RAS expression in tumor of BALB/c mouse xenografted with human HT-29 cells at 7.5 to 15 mg/kg, ip administered once every 2 days for 12 times and measured after 24 days by Western blot analysis", "assay_type": "functional, organism-based", "conditions": "Neoplasm, dose 7.5-15 mg/kg, time 24.0 day"}, "HT-29 [27]": {"test_system": "HT-29", "assay": "Effect on ERK1/2 expression in tumor of BALB/c mouse xenografted with human HT-29 cells at 7.5 to 15 mg/kg, ip administered once every 2 days for 12 times and measured after 24 days by Western blot analysis", "assay_type": "functional, organism-based", "conditions": "Neoplasm, dose 7.5-15 mg/kg, time 24.0 day"}, "HT-29 [28]": {"test_system": "HT-29", "assay": "Effect on MEK expression in tumor of BALB/c mouse xenografted with human HT-29 cells at 7.5 to 15 mg/kg, ip administered once every 2 days for 12 times and measured after 24 days by Western blot analysis", "assay_type": "functional, organism-based", "conditions": "Neoplasm, dose 7.5-15 mg/kg, time 24.0 day"}, "HT-29 [29]": {"test_system": "HT-29", "assay": "Effect on Histone H3 expression in tumor of BALB/c mouse xenografted with human HT-29 cells at 7.5 to 15 mg/kg, ip administered once every 2 days for 12 times and measured after 24 days by Western blot analysis", "assay_type": "functional, organism-based", "conditions": "Neoplasm, dose 7.5-15 mg/kg, time 24.0 day"}, "HT-29 [30]": {"test_system": "HT-29", "assay": "Effect on alpha-tubulin expression in tumor of BALB/c mouse xenografted with human HT-29 cells at 7.5 to 15 mg/kg, ip administered once every 2 days for 12 times and measured after 24 days by Western blot analysis", "assay_type": "functional, organism-based", "conditions": "Neoplasm, dose 7.5-15 mg/kg, time 24.0 day"}, "[31]": {"assay": "Toxicity in BALB/c nude mouse xenografted with human HT-29 cells assessed as change in spleen histopathology at 10 to 15 mg/kg, ip administered once daily for 24 days by H&E staining based analysis", "assay_type": "organism-based", "conditions": "in vivo, 576 h, dose 10-15 mg/kg, time 24 day"}, "[32]": {"assay": "Toxicity in BALB/c nude mouse xenografted with human HT-29 cells assessed as change in kidney histopathology at 10 to 15 mg/kg, ip administered once daily for 24 days by H&E staining based analysis", "assay_type": "organism-based", "conditions": "in vivo, 576 h, dose 10-15 mg/kg, time 24 day"}, "NCI-H1975": {"test_system": "NCI-H1975", "assay": "cells", "conditions": "Homo sapiens, NCI-H1975, 72 h", "description": "Cytotoxicity against human NCI-H1975 cells assessed as inhibition of cell growth incubated for 72 hrs by MTT assay"}, "L02": {"test_system": "L02", "assay": "cells", "conditions": "Homo sapiens, L02, 72 h", "description": "Cytotoxicity against human L02 cells assessed as inhibition of cell growth incubated for 72 hrs by MTT assay"}, "K562": {"test_system": "K562", "assay": "cells", "conditions": "Homo sapiens, K562, 72 h", "description": "Cytotoxicity against human K562 cells assessed as inhibition of cell growth incubated for 72 hrs by MTT assay"}}, "note": "Active and inactive are the calls of the source. The rule behind the calls is not given here."}
{"smiles": "COc1cc(OC)c(/C=C/S(=O)(=O)Cc2ccc(OC)c(NCC(=O)NO)c2)c(OC)c1", "values": [{"measurement": "IC50", "setting": "Histone deacetylase 4", "value": 75, "unit": "nM"}, {"measurement": "IC50", "setting": "Histone deacetylase 9", "value": 83.7, "unit": "nM"}, {"measurement": "IC50", "setting": "[1]", "value": 17.8, "unit": "nM"}, {"measurement": "inhibition", "setting": "[1]", "value": "Dose-Dependent Effect"}, {"measurement": "Activity", "setting": "HT-29 [2]", "value": "Active"}, {"measurement": "Activity", "setting": "PANC-1 [3]", "value": "Dose-Dependent Effect"}, {"measurement": "Activity", "setting": "HT-29 [4]", "value": "Dose-Dependent Effect"}, {"measurement": "Activity", "setting": "PANC-1 [5]", "value": "Active"}, {"measurement": "half-life at 1 µM", "setting": "[6]", "value": 28.6, "unit": "min"}, {"measurement": "CLint scaled at 1 µM", "setting": "[7]", "value": 14, "unit": "mL/min/kg"}, {"measurement": "CLint scaled at 1 µM", "setting": "[8]", "value": 191, "unit": "mL/min/kg"}, {"measurement": "half-life", "setting": "[9]", "value": 46.3, "unit": "min"}, {"measurement": "Cmax", "setting": "[10]", "value": 2800, "unit": "ng/mL"}, {"measurement": "AUC(0-inf)", "setting": "[11]", "value": 5200, "unit": "ng·h/mL"}, {"measurement": "k el at 24 h", "setting": "[12]", "value": 0.000252, "unit": "s⁻¹"}, {"measurement": "MRT inf", "setting": "[13]", "value": 80.4, "unit": "min"}, {"measurement": "inhibition in vivo at 15 mg/kg", "setting": "HT-29 [14]", "value": 75.2, "unit": "%"}, {"measurement": "Activity", "setting": "[15]", "value": "Non-Toxic"}, {"measurement": "Activity", "setting": "PANC-1 [16]", "value": "inactive"}, {"measurement": "Activity", "setting": "PANC-1 [17]", "value": "inactive"}, {"measurement": "inhibition", "setting": "PANC-1 [18]", "value": "Active"}, {"measurement": "inhibition", "setting": "PANC-1 [19]", "value": "Active"}, {"measurement": "inhibition", "setting": "PANC-1 [20]", "value": "Active"}, {"measurement": "inhibition", "setting": "HT-29 [21]", "value": "Active"}, {"measurement": "Activity", "setting": "PANC-1 [22]", "value": "inactive"}, {"measurement": "Activity", "setting": "HT-29 [23]", "value": "inactive"}, {"measurement": "inhibition", "setting": "Mus musculus [24]", "value": "Dose-Dependent Effect"}, {"measurement": "inhibition", "setting": "Mus musculus [25]", "value": "Dose-Dependent Effect"}, {"measurement": "Activity", "setting": "HT-29 [26]", "value": "inactive"}, {"measurement": "Activity", "setting": "HT-29 [27]", "value": "inactive"}, {"measurement": "Activity", "setting": "HT-29 [28]", "value": "inactive"}, {"measurement": "Activity", "setting": "HT-29 [29]", "value": "inactive"}, {"measurement": "Activity", "setting": "HT-29 [30]", "value": "inactive"}, {"measurement": "Activity", "setting": "[31]", "value": "Non-Toxic"}, {"measurement": "Activity", "setting": "[32]", "value": "Non-Toxic"}, {"measurement": "IC50", "setting": "NCI-H1975", "value": 50, "unit": "nM"}, {"measurement": "IC50", "setting": "L02", "value": "> 40000", "unit": "nM"}, {"measurement": "IC50", "setting": "K562", "value": 20, "unit": "nM"}]}
